By IC50 is commonly meant the concentration needed to halve the response being measured. Low readings indicate greater potency, high ones weaker potency.

In the assay the test system is PCSK9. Briefly: PCSK9 secretion assay in HepG2 cells (PCSK9 ELISA). The format is cell-based. Conditions: HepG2 cells; for IC50: 16 hours incubation, at least 6 concentrations. How it is done: HepG2 cells (from ATCC, Catalog no. HB-8065) were maintained in DMEM (Invitrogen) supplemented with 10% fetal bovine serum (Invitrogen). The day prior to the PCSK9 assay, cells are seeded in 96-well collagen coated plates at 25,000 cells/well.
The compounds of the invention were stored at −20° C. until used. The test article compound was dissolved in 100% ethanol to a 50 mM stock solution. This was then diluted in FBS to a final concentration of 1 mM. This solution was placed in a sonicating water bath for 30 minutes. Subsequent dilutions were then made in FBS supplemented with an equivalent volume of ethanol and mixed by vortexing.
HepG2 cells were seeded onto a collagen coated 96-well plate (Becton Dickinson, Catalog no. 35-4407) the day prior to the assay, as described above. The next day, the cell medium was removed, washed once with 100 μL serum free DMEM to remove any residual PCSK9, and replaced with 90 μL of serum free DMEM. Ten microliters of each compound concentration prepared in FBS was then added. Each concentration of compound was tested in triplicate. The compound was incubated with the cells overnight for 16 hours. Following this incubation, 10 μL of AlamarBlue was added to each well and cells incubated for another 2 hours. The plates were then removed and AlamarBlue fluorescence was measured (excitation, 550 nm and […]) to assess cell viability. Cell culture supernatant was then diluted […] 1×RDSP Calibrator Diluent and PCSK9 ELISA was then performed with 50 μL of this diluted sample, as per the manufacturer's instructions. The ELISA was measured on a Victor X5 multilabel plate reader (PerkinElmer) at an absorbance of 450 nm with background correction measured at 550 nm (The PCSK9 Elisa kits can be purchased from R&D System, Catalog no. DPC900).
Alternatively, an IC50 could also be obtained when this type of assay was carried out using at least 6 different concentrations of the test compounds. Table 1 lists the IC50 values for the compounds tested in this assay.
(In general: An ELISA detects its analyte on a solid surface through an enzyme-linked reagent.)

Each structure is given as a SMILES string.

For `CC/C=C\C/C=C\C/C=C\C/C=C\C/C=C\CCCC(=O)N1CCC(CNC(=O)C2=CC(=O)C(C)(c3ccccc3)O2)CC1` (stereo not shown) [VII-2, N-((1-((5Z,8Z,11Z,14Z,17Z)-icosa-5,8,11,14,17-pentaenoyl)piperidin-4-yl)methyl)-5-methyl-4-oxo-5-phenyl-4,5-dihydrofuran-2-carboxamide], the half-inhibitory concentration (IC50) was below 25 µM.

Take `CC/C=C\C/C=C\C/C=C\C/C=C\C/C=C\CCCC(=O)NCCNC(=O)c1cccnc1F` [VI-7, 2-fluoro-N-(2-((5Z,8Z,11Z,14Z,17Z)-icosa-5,8,11,14,17-pentaenamido)ethyl)nicotinamide]: the IC50 was below 25 µM. The compound `CC/C=C\C/C=C\C/C=C\C/C=C\C/C=C\CCCC(=O)Nc1nc(C)ncc1CNC(=O)c1cccnc1` [Compound I-64, N-((4-((5Z,8Z,11Z,14Z,17Z)-icosa-5,8,11,14,17-pentaenamido)-2-methylpyrimidin-5-yl)methyl)nicotinamide] returned an IC50 of 25 to 50 µM. `CC/C=C\C/C=C\C/C=C\C/C=C\C/C=C\CCCC(=O)N1CCC[C@H]1CNC(=O)c1cnc(C)c[n+]1[O-]` [VII-14, 2-((((S)-1-((5Z,8Z,11Z,14Z,17Z)-icosa-5,8,11,14,17-pentaenoyl)pyrrolidin-2-yl)methyl)carbamoyl)-5-methylpyrazine 1-oxide] gave a half-inhibitory concentration (IC50) of 25 to 50 µM. Same read-out and setting: with `CC/C=C\C/C=C\C/C=C\C/C=C\C/C=C\CCCC(=O)N1CC[C@H](N(C)C(=O)c2cnc(C)c[n+]2[O-])C1` [VII-17, 2-(((S)-1-((5Z,8Z,11Z,14Z,17Z)-icosa-5,8,11,14,17-pentaenoyl)pyrrolidin-3-yl)(methyl)carbamoyl)-5-methylpyrazine 1-oxide] the figure was below 25 µM. Still for that read-out and setting: with `CC/C=C\C/C=C\C/C=C\C/C=C\C/C=C\CCCC(=O)N1CCN(C(=O)c2ccccc2NC(=O)c2cccnc2)CC1` [Compound I-60, N-(2-(4-((5Z,8Z,11Z,14Z,17Z)-icosa-5,8,11,14,17-pentaenoyl)piperazine-1-carbonyl)phenyl)nicotinamide] the figure was above 50 µM; with `CC/C=C\C/C=C\C/C=C\C/C=C\C/C=C\CCCC(=O)N1CCC[C@@H]1CNC(=O)c1cnc(C)c[n+]1[O-]` [VII-13, 2-((((R)-1-((5Z,8Z,11Z,14Z,17Z)-icosa-5,8,11,14,17-pentaenoyl)pyrrolidin-2-yl)methyl)carbamoyl)-5-methylpyrazine 1-oxide], below 25 µM.

Turning to `CC/C=C\C/C=C\C/C=C\C/C=C\C/C=C\CCCC(=O)N1CCN(C(=O)c2cccnc2)CC1` [Compound I-13, (5Z,8Z,11Z,14Z,17Z)-1-(4-nicotinoylpiperazin-1-yl)icosa-5,8,11,14,17-pentaen-1-one], the IC50 fell in the range of 25 to 50 µM. On the same count and under the same terms, as for `CC/C=C\C/C=C\C/C=C\C/C=C\C/C=C\C/C=C\CCC(=O)NCCNC(=O)c1cccnc1` [Compound I-7, N-(2-(4Z,7Z,10Z,13Z,16Z,19Z)-docosa-4,7,10,13,16,19-hexaenamidoethyl)nicotinamide], the figure is below 25 µM; as for `CC/C=C\C/C=C\C/C=C\C/C=C\C/C=C\CCCC(=O)Nc1nc(C)ncc1CNC(=O)C(C)(C)Oc1ccc(C(=O)c2ccc(Cl)cc2)cc1` [VII-41, (5Z,8Z,11Z,14Z,17Z)—N-(5-((2-(4-(4-chlorobenzoyl)phenoxy)-2-methylpropanamido)methyl)-2-methylpyrimidin-4-yl)icosa-5,8,11,14,17-pentaenamide], 25 to 50 µM. The same measure, in the same setting: as for `CC/C=C\C/C=C\C/C=C\C/C=C\C/C=C\CCCC(=O)N1CCC(NC(=O)c2c[n+]([O-])cc(C)n2)CC1` [VII-15, 3-((1-((5Z,8Z,11Z,14Z,17Z)-icosa-5,8,11,14,17-pentaenoyl)piperidin-4-yl)carbamoyl)-5-methylpyrazine 1-oxide], the figure is below 25 µM; as for `CC/C=C\C/C=C\C/C=C\C/C=C\C/C=C\CCCC(=O)N(C)CC1CCN(C(=O)c2cccnc2)CC1` [Compound I-48, (5Z,8Z,11Z,14Z,17Z)—N-methyl-N-((1-nicotinoylpiperidin-4-yl)methyl)icosa-5,8,11,14,17-pentaenamide], below 25 µM.

Take `CC/C=C\C/C=C\C/C=C\C/C=C\C/C=C\CCCC(=O)N1CCC(N(C)C(=O)C2=CC(=O)C(C)(c3ccccc3)O2)CC1` (stereo not shown) [VII-7, N-(1-((5Z,8Z,11Z,14Z,17Z)-icosa-5,8,11,14,17-pentaenoyl)piperidin-4-yl)-N,5-dimethyl-4-oxo-5-phenyl-4,5-dihydrofuran-2-carboxamide]: the IC50 is below 25 µM. Still for that read-out and setting: with `CC/C=C\C/C=C\C/C=C\C/C=C\C/C=C\CCCC(=O)N1CC[C@H](NC(=O)C(C)(C)Oc2ccc(C(=O)c3ccc(Cl)cc3)cc2)C1` [VII-22, 2-(4-(4-chlorobenzoyl)phenoxy)-N—((S)-1-((5Z,8Z,11Z,14Z,17Z)-icosa-5,8,11,14,17-pentaenoyl)pyrrolidin-3-yl)-2-methylpropanamide] the figure was below 25 µM; with `CC/C=C\C/C=C\C/C=C\C/C=C\C/C=C\CCCC(=O)NCCCCNC(=O)c1cccnc1` [Compound I-19, N-(4-((5Z,8Z,11Z,14Z,17Z)-icosa-5,8,11,14,17-pentaenamido)butyl)nicotinamide], below 25 µM; with `CC/C=C\C/C=C\C/C=C\C/C=C\C/C=C\CCCC(=O)NCCNC(=O)c1ccncn1` [II-10, N-(2-((5Z,8Z,11Z,14Z,17Z)-icosa-5,8,11,14,17-pentaenamido)ethyl)pyrimidine-4-carboxamide], above 50 µM. Still for that read-out and setting: as for `CC/C=C\C/C=C\C/C=C\C/C=C\C/C=C\CCCC(=O)NCCNC(=O)[C@@H]1CCCN1C(=O)c1cccnc1` [Compound I-27, (S)—N-(2-((5Z,8Z,11Z,14Z,17Z)-icosa-5,8,11,14,17-pentaenamido)ethyl)-1-nicotinoylpyrrolidine-2-carboxamide], the figure is below 25 µM; as for `CC/C=C\C/C=C\C/C=C\C/C=C\C/C=C\CCCC(=O)NCCNC(=O)c1cnccn1` [II-11, N-(2-((5Z,8Z,11Z,14Z,17Z)-icosa-5,8,11,14,17-pentaenamido)ethyl)pyrazine-2-carboxamide], above 50 µM. As for `CC/C=C\C/C=C\C/C=C\C/C=C\C/C=C\CCCC(=O)NCCNC(=O)c1ccccc1` [II-1, N-(2-((5Z,8Z,11Z,14Z,17Z)-icosa-5,8,11,14,17-pentaenamido)ethyl)benzamide], the IC50 lay within 25 to 50 µM. Moreover, under “at 25 and 50 μM, FIG. 1”, the “lowering of PCSK9” value is on record as “significant lowering of PCSK9”.

For `CC/C=C\C/C=C\C/C=C\C/C=C\C/C=C\C/C=C\CCC(=O)N(C)CCNC(=O)c1cccnc1` [Compound I-14, N-(2-((4Z,7Z,10Z,13Z,16Z,19Z)—N-methyldocosa-4,7,10,13,16,19-hexaenamido)ethyl)nicotinamide], the IC50 was below 25 µM. Consider `CC/C=C\C/C=C\C/C=C\C/C=C\C/C=C\CCCC(=O)NC1CCN(C(=O)C(C)(C)Oc2ccc(C(=O)c3ccc(Cl)cc3)cc2)CC1` [VII-25, (5Z,8Z,11Z,14Z,17Z)—N-(1-(2-(4-(4-chlorobenzoyl)phenoxy)-2-methylpropanoyl)piperidin-4-yl)icosa-5,8,11,14,17-pentaenamide], for which the IC50 is below 25 µM.

For the origin of these results see patent publication US20140093513A1, “METHODS OF LOWERING PROPROTEIN CONVERSATE SUBTILISIN/KEXIN TYPE 9 (PCSK9)” (Catabasis Pharmaceuticals, Inc., priority 2012, published 2014).
